Measurements as given in patent US20250064789A1, “KETOAMIDE DERIVATIVES AND PHARMACEUTICAL USES THEREOF” (priority 2022, published 2025).

Each compound was assayed against recombinant SARS-CoV-2 M^pro (Severe acute respiratory syndrome coronavirus 2 (2019-nCoV) (SARS-CoV-2), UniProt P0DTD1) (assay: Inhibition of SARS-CoV-2 M^pro enzyme activity (fluorescent substrate assay)). Settings: inhibition of SARS-CoV-2 M^pro enzyme activity; values given in μM; read-out: IC50.
Assay type: biochemical
Work on `O=C(CNC(=O)c1cccnc1)N[C@H](Cc1ccccc1)C(=O)C(=O)NCc1nccs1` [Compound 480] yielded an IC50 of 2.23 ± 0.37 µM. Work on `Cc1nc(CNC(=O)C(=O)[C@@H](Cc2ccccc2)NC(=O)[C@@H](C)NC(=O)C2CCC(F)(F)CC2)cs1` [Compound 351] yielded an IC50 of 1.16 ± 0.32 µM. `C[C@@H](NC(=O)C1CCC(F)(F)CC1)C(=O)N[C@H](Cc1ccccc1)C(=O)C(=O)NCc1ncco1` [Compound 352] showed an IC50 of 2.5 ± 0.29 µM. `O=C(NCc1ccccn1)C(=O)[C@@H](Cc1ccccc1)NC(=O)[C@@H]1CC2(CC2)CN1C(=O)C1CCC(F)(F)CC1` [Compound 272] was tested, and the IC50 was greater than 2.5 µM. `C[C@@H](NC(=O)c1ccccn1)C(=O)N[C@H](Cc1ccccc1)C(=O)C(=O)NCc1ccccn1` [Compound 141] gave an IC50 of 1.16 ± 0.24 µM.

Same assay, conditions: inhibition of SARS-CoV-2 M^pro enzyme activity; values in nM; read-out: IC50
For `C[C@@H](NC(=O)C1CCC(C(F)(F)F)CC1)C(=O)N[C@H](Cc1ccccc1)C(=O)C(=O)NCc1ccccn1` (stereo partly shown) [Compound 110], the IC50 was 0.0313 ± 0.0001 µM. `CC(C)(C)OC(=O)N1CC(NC(=O)C2CCC(F)(F)CC2)(C(=O)N[C@H](Cc2ccccc2)C(=O)C(=O)NCc2ccccn2)C1` [Compound 225] gave an IC50 of 0.0382 ± 0.003 µM. For `O=C(Cn1cc(C2CCC(F)(F)CC2)c(C(F)(F)F)n1)N[C@H](Cc1ccccc1)C(=O)C(=O)NCc1nccs1` [Compound 510], the IC50 was 0.137 ± 0.0016 µM. With `CC(C)(NC(=O)C1CC12CCC(F)(F)CC2)C(=O)N[C@H](Cc1ccccc1)C(=O)C(=O)NCc1ccccn1` (stereo partly shown) [Compound 176] the IC50 was 0.0159 µM. Work on `O=C(Cc1noc(-c2ccc(Cl)cc2F)n1)N[C@H](Cc1ccccc1)C(=O)C(=O)NCc1nccs1` [Compound 521] yielded an IC50 of 0.441 ± 0.0045 µM. Work on `O=C(NCc1ccccn1)C(=O)[C@@H](Cc1ccccc1)NC(=O)C1(NC(=O)[C@@H]2C[C@@H]3[C@H](C2)C3(F)F)CCC1` [Compound 202] yielded an IC50 of 0.0174 ± 0.0012 µM. For `CN(C(=O)C1CCC(F)(F)CC1)C1(C(=O)N[C@H](Cc2ccccc2)C(=O)C(=O)NCc2ccccn2)CCC1` [Compound 194], the IC50 was 0.387 ± 0.03 µM. Work on `CC(C)[C@@H](OCc1ccc(F)cc1)C(=O)N[C@H](Cc1ccccc1)C(=O)C(=O)NCc1ccccn1` [Compound 26] yielded an IC50 of 0.0139 ± 0.0002 µM. With `C[C@@H](NC(=O)c1ccc(F)c(S(C)(=O)=O)c1)C(=O)N[C@H](Cc1ccccc1)C(=O)C(=O)NCc1ccccn1` [Compound 103] the IC50 was 0.0288 ± 0.001 µM. `C[C@@H](NC(=O)C1CCC(F)(F)C1)C(=O)N[C@H](Cc1ccccc1)C(=O)C(=O)NCc1ccccn1` (stereo partly shown) [Compound 121] showed an IC50 of 0.0507 ± 0.0004 µM. Compound `C[C@@H](NC(=O)c1cc2ccccc2o1)C(=O)N[C@H](Cc1ccccc1)C(=O)C(=O)NCc1ccccn1` [Compound 72] has an IC50 of 0.0277 ± 0.0041 µM. With `C[C@@H](NC(=O)C(C#N)Cc1ccccc1)C(=O)N[C@H](Cc1ccccc1)C(=O)C(=O)NCc1ccccn1` (stereo partly shown) [Compound 65] the IC50 was 0.0212 ± 0.0008 µM. Compound `C[C@@H](OCc1ccc(F)cc1)C(=O)N[C@H](Cc1ccc2ccccc2c1)C(=O)C(=O)NCc1ccc(Cl)cn1` [Compound 53] has an IC50 of 0.1878 ± 0.0007 µM. `Cc1nn(CC(=O)N[C@H](Cc2ccccc2)C(=O)C(=O)NCc2nccs2)c(C)c1C1CCC(F)(F)CC1` [Compound 509] showed an IC50 of 0.151 ± 0.0066 µM. In the case of `C[C@@H](NC(=O)C1CCC(F)(F)CC1)C(=O)N[C@H](Cc1ccccc1F)C(=O)C(=O)NCc1ccccn1` [Compound 361], the IC50 is reported as 0.0272 ± 0.0028 µM. Compound `CC[C@@H](NC(=O)c1ccc(F)cc1)C(=O)N[C@H](Cc1ccccc1)C(=O)C(=O)NCc1ccccn1` [Compound 246] has an IC50 of 0.0236 ± 0.0003 µM. For `C[C@@H](NC(=O)C1CCC(F)(F)CC1)C(=O)N[C@H](Cc1ccco1)C(=O)C(=O)NCc1nccs1` [Compound 367], the IC50 was 0.105 ± 0.0105 µM. Work on `O=C(CNC(=O)C1CCC(F)(F)CC1)N[C@H](Cc1ccc(Cl)cc1Cl)C(=O)C(=O)NCc1ccccn1` [Compound 450] yielded an IC50 of 0.0454 ± 0.0002 µM. In the case of `COC[C@@H](NC(=O)N1CCCC(F)(F)C1)C(=O)N[C@H](Cc1ccccc1)C(=O)C(=O)NCc1nccs1` [Compound 548], the IC50 is reported as 0.4104 ± 0.001 µM. `O=C(NCc1ccccn1)C(=O)[C@@H](Cc1ccccc1)NC(=O)C1CCN(Cc2ccccc2)C1` (stereo partly shown) [Compound 279] gave an IC50 of 0.272 ± 0.0062 µM. For `C[C@@H](OCc1ccccc1)C(=O)N[C@H](Cc1ccccc1)C(=O)C(=O)NCc1ccc(Cl)cn1` [Compound 36], the IC50 was 0.0309 ± 0.0002 µM. For `O=C(Cc1noc(-c2ccc(F)c(C(F)(F)F)c2)n1)N[C@H](Cc1ccccc1)C(=O)C(=O)NCc1nccs1` [Compound 524], the IC50 was 0.0328 ± 0.0032 µM. With `CC1(C)C(C(=O)NC2CC(F)(F)C2)C1C(=O)N[C@H](Cc1ccccc1)C(=O)C(=O)NCc1nccs1` (stereo partly shown) [Compound 556] the IC50 was 0.2035 ± 0.0006 µM. With `COc1ccc(CNC(=O)C(=O)[C@@H](Cc2ccccc2)NC(=O)[C@@H](C)NC(=O)C2CCC(F)(F)CC2)nc1` [Compound 345] the IC50 was 0.0609 ± 0.0047 µM. In the case of `C[C@@H](NC(=O)C1CCC(F)(F)CC1)C(=O)N[C@H](Cc1ccccc1)C(=O)C(=O)NCc1ccc(F)cn1` [Compound 336], the IC50 is reported as 0.015 ± 0.0008 µM. With `O=C(NCc1ccccn1)C(=O)[C@@H](Cc1ccccc1)NC(=O)C1(NC(=O)[C@@H]2C[C@@H]3[C@H](C2)C3(F)F)CC(F)(F)C1` [Compound 235] the IC50 was 0.0286 ± 0.0021 µM. Compound `O=C(CNC(=O)C1CCC(F)(F)CC1)N[C@H](Cc1ccc(Cl)cc1Cl)C(=O)C(=O)NCc1ccccn1` [Compound 451] has an IC50 of 0.0344 ± 0.0018 µM. `C[C@@H](NC(=O)C1C[C@@H]2[C@H](C1)C2(F)F)C(=O)N[C@H](Cc1ccco1)C(=O)C(=O)NCc1ccccn1` (stereo partly shown) [Compound 366] was tested, and the IC50 was 0.0646 ± 0.0007 µM. `C[C@H](C(=O)N[C@H](Cc1ccccc1)C(=O)C(=O)NCc1ccccn1)N(C)C(=O)c1ccc(F)cc1` [Compound 149] was tested, and the IC50 was 0.0364 ± 0.0074 µM. In the case of `O=C(NCc1nccs1)C(=O)[C@@H](Cc1ccccc1)NC(=O)[C@H]1COCCN1C(=O)CC1CC(F)(F)C1` [Compound 408], the IC50 is reported as 0.0149 ± 0.0005 µM. `C[C@@H](NC(=O)COc1ccc(Cl)c(Cl)c1)C(=O)N[C@H](Cc1ccccc1)C(=O)C(=O)NCc1ccccn1` [Compound 71] gave an IC50 of 0.0109 ± 0.0005 µM. `CN(OCc1ccccc1)C(=O)N[C@H](Cc1ccccc1)C(=O)C(=O)NCc1ccccn1` [Compound 58, (R)-3-(3-(benzyloxy)-3-methylureido)-2-oxo-4-phenyl-N-(pyridin-2-ylmethyl)butyramide] was tested, and the IC50 was 0.1009 ± 0.0001 µM. For `C[C@@H](NC(=O)CC1CC(F)(F)C1)C(=O)N[C@H](Cc1ccccc1)C(=O)C(=O)NCc1ccccn1` [Compound 134], the IC50 was 0.0245 µM. `O=C(Cn1cc(C2CCC(F)(F)CC2)cn1)N[C@H](Cc1ccccc1)C(=O)C(=O)NCc1nccs1` [Compound 513] showed an IC50 of 0.0304 ± 0.0008 µM. Work on `C[C@@H](NC(=O)c1ccc(F)cc1)C(=O)N[C@H](Cc1ccccc1)C(=O)C(=O)NCc1ccccn1` [Compound 140] yielded an IC50 of 0.0155 ± 0.001 µM. Work on `CC(C)(C)OC(=O)NCC(C)(C)C(=O)N[C@H](Cc1ccccc1)C(=O)C(=O)NCc1ccccn1` [Compound 255] yielded an IC50 of 0.111 ± 0.0041 µM. In the case of `CC(C)[C@@H](NC(=O)c1ccc(F)cc1)C(=O)N[C@H](Cc1ccccc1)C(=O)C(=O)NCc1ccccn1` [Compound 247], the IC50 is reported as 0.0382 ± 0.0028 µM. Work on `O=C(CNC(=O)C1CCC(F)(F)C1)N[C@H](Cc1ccccc1)C(=O)C(=O)NCc1nccs1` (stereo partly shown) [Compound 391] yielded an IC50 of 0.109 ± 0.0086 µM. `C[C@@H](NC(=O)COc1ccc(Cl)cc1F)C(=O)N[C@H](Cc1ccccc1)C(=O)C(=O)NCc1ccccn1` [Compound 86] showed an IC50 of 0.0705 ± 0.0025 µM. For `O=C(NCc1ccccn1)C(=O)[C@@H](Cc1ccccc1)NC(=O)C1(NC(=O)C2C3COCC32)CCC1` (stereo partly shown) [Compound 211], the IC50 was 0.0577 ± 0.003 µM. Compound `O=C(NCc1ccccn1)C(=O)[C@@H](Cc1ccccc1)NC(=O)C1(NC(=O)c2cc(C(F)(F)F)[nH]n2)CCC1` [Compound 198] has an IC50 of 0.0181 ± 0.0027 µM. `O=C(NCc1ccccn1)C(=O)[C@@H](Cc1ccccc1)NC(=O)[C@H]1CC(F)(F)CN1C(=O)C1(F)CCCCC1` [Compound 277] showed an IC50 of 0.0307 ± 0.0006 µM. `CC[C@@H](C(=O)N[C@H](C)C(=O)N[C@H](Cc1ccccc1)C(=O)C(=O)NCc1ccccn1)N1CCCC1=O` [Compound 123] showed an IC50 of 0.163 ± 0.002 µM. `O=C(CNC(=O)c1cccc(F)c1)N[C@H](Cc1ccccc1)C(=O)C(=O)NCc1nccs1` [Compound 482] was tested, and the IC50 was 0.5382 ± 0.0043 µM. With `O=C(NCc1ccccn1)C(=O)[C@@H](Cc1ccccc1)NC(=O)[C@@H](Cc1ccccc1)NC(=O)[C@H]1CC[C@H](C(F)(F)F)CC1` [Compound 216] the IC50 was 0.0163 ± 0.0004 µM. Compound `CC(C)(C(=O)N[C@H](Cc1ccccc1)C(=O)C(=O)NCc1ccccn1)C(=O)N1CCC(C(F)(F)F)CC1` [Compound 325] has an IC50 of 0.177 ± 0.0025 µM. `COc1ccc(OCC(=O)N[C@H](C)C(=O)N[C@H](Cc2ccccc2)C(=O)C(=O)NCc2ccccn2)cc1` [Compound 92] was tested, and the IC50 was 0.0266 ± 0.0004 µM. Compound `CC[C@@H](C)C(NC(=O)c1ccc(F)cc1)C(=O)N[C@H](Cc1ccccc1)C(=O)C(=O)NCc1ccccn1` (stereo partly shown) [Compound 251] has an IC50 of 0.0342 ± 0.0005 µM. In the case of `CN(CC(=O)N[C@H](Cc1ccccc1)C(=O)C(=O)NCc1ccccn1)C(=O)C1CCC(F)(F)CC1` [Compound 156], the IC50 is reported as 0.0334 ± 0.0009 µM. With `COC(=O)C[C@@H](NC(=O)CC1CC(F)(F)C1)C(=O)N[C@H](Cc1ccccc1)C(=O)C(=O)NCc1nccs1` [Compound 574] the IC50 was 0.0144 ± 0.0008 µM. With `O=C(NCc1ccccn1)C(=O)[C@@H](Cc1ccccc1)NC(=O)[C@H]1CCCCN1C(=O)CC1CCC(F)(F)CC1` [Compound 283] the IC50 was 0.0146 µM. For `C[C@@H](NC(=O)[C@@H]1C[C@@H]2[C@H](C1)C2(F)F)C(=O)N[C@H](Cc1ccccc1)C(=O)C(=O)NCc1nccs1` [Compound 377], the IC50 was 0.08 ± 0.0036 µM. Work on `CN(C)CC(NC(=O)C1CCC(F)(F)CC1)C(=O)N[C@H](Cc1ccccc1)C(=O)C(=O)NCc1ccccn1` (stereo partly shown) [Compound 232] yielded an IC50 of 0.0607 ± 0.0001 µM. `O=C(CC1CCC(F)(F)CC1)NCC(=O)N[C@H](Cc1ccccc1)C(=O)C(=O)NCc1nccs1` [Compound 390] showed an IC50 of 0.0218 ± 0.0011 µM. In the case of `CC(C)(NC(=O)NCC1CCC(F)(F)CC1)C(=O)N[C@H](Cc1ccccc1)C(=O)C(=O)NCc1ccccn1` [Compound 303], the IC50 is reported as 0.0107 ± 0.001 µM. With `C[C@@H](NC(=O)C1CCC(C(F)(F)F)CC1)C(=O)N[C@H](Cc1ccccc1)C(=O)C(=O)NCc1ccccn1` (stereo partly shown) [Compound 147] the IC50 was 0.013 ± 0.0007 µM. Work on `COc1ccnc(CNC(=O)C(=O)[C@@H](Cc2ccccc2)NC(=O)[C@@H](C)NC(=O)C2CCC(F)(F)CC2)c1` [Compound 342] yielded an IC50 of 0.0222 ± 0.0002 µM. In the case of `O=C(NCc1cscn1)C(=O)[C@@H](Cc1ccccc1)NC(=O)[C@H]1COCCN1C(=O)CC1CC1(F)F` (stereo partly shown) [Compound 435], the IC50 is reported as 0.0582 ± 0.0013 µM. Work on `COc1ccc(CC(=O)N[C@H](C)C(=O)N[C@H](Cc2ccccc2)C(=O)C(=O)NCc2ccccn2)cc1` [Compound 77] yielded an IC50 of 0.0241 µM.
